Laboratory results as given in patent US6420570B1, “Psoralen compounds” (priority 1993, dated 2002).
Structures can show the parent of a compound that is named as a salt.

Tests used:
R17 = R17 bacteriophage inactivation screen, varying compound concentration; format: cell-based; settings: for R17 Log Kill 8 uM / R17 Log Kill 16 uM / R17 Log Kill 32 uM: Table 5, starting titer approx. 7.2 logs
Procedure: The assay used to predict pathogen inactivation efficiency and to determine nucleic acid binding of the photoreactive binding compounds of the present invention was that in which a bacteriophage, R17, in solution with the desired substrate was irradiated. The ability of the phage to subsequently infect bacteria and inhibit their growth was measured. The bacteriophage was selected for its relatively accessible nucleic acid such that the culture growth inhibition would accurately reflect nucleic acid damage by the test compounds. The bacteriophage assay for nucleic acid binding to test compounds offers a safe and inexpensive procedure to identify compounds likely to display efficient pathogen inactivation. […] An aliquot (0.5 mL) was transferred to a 1.5 mL, snap-top polyethylene tube. An aliquot (0.004-0.040 mL) of the test compound stock solution prepared in water, ethanol or dimethylsulfoxide at 0.80-8.0 mM was added to the tube. Compounds were tested at concentrations between 4 μM and 320 μM. (AMT is commercially available from HRI, Inc., Concord, Calif.; 8-MOP is commercially available from Sigma, St. Louis, Mo.). The tubes were placed in a light device as described in EXAMPLE 1 and irradiated for between 1 and 10 minutes. […] To make the dilutions, a 0.100 mL aliquot of the irradiated solution of phage and test compound was added to the first dilution tube of 0.4 mL of media then 0.020 mL of this solution was added to the second tube of 0.5 mL medium (1:25). The second solution was then diluted serially (1:25) into the remaining tubes. […] After the top agar hardened, the plates were incubated at 37° C. overnight. The plaque forming units were then counted the following morning and the titer of the phage remaining after phototreatment was calculated based on the dilution factors. The following controls were run: the “phage only” in which phage was not treated with test compound and not irradiated (listed as “starting titer” in the tables below); the “UV only” in which the phage was irradiated in the absence of test compound; and the “dark” control in which the phage/test compound solution was not irradiated before it was diluted and plated.

cell-free virus (HIV) = format: cell-based
Procedure: Pathogen inactivation efficiency of several compounds of the present invention was evaluated by examining the ability of the compounds to inactivate cell-free virus (HIV). Inactivation of cell-free HIV was performed as follows.
As in the R17 assay, small aliquots of the compounds listed in TABLES 8 and 9, below, at the concentrations listed in the table, were added to stock HIV-1 to a total of 0.5 mL. The stock HIV (10^5-10^7 plaque forming units/mL) was in DMEM/15% FBS. […] Controls included HIV-1 stock only, HIV-1 plus UVA only, and HIV-1 plus the highest concentration of each psoralen tested, with no UVA. Post irradiation, all samples were stores frozen at −70° C. until assayed for infectivity by a microtiter plaque assay. Aliquots for measurement of residual HIV infectivity in the samples treated with a compound of the present invention were withdrawn and cultured.
Residual HIV infectivity was assayed using an MT-2 infectivity assay. […] The assay medium was 85% DMEM (with a high glucose concentration) containing 100 μg of streptomycin, 100 U of penicillin, 50 μg of gentamicin, and 1 μg of amphotericin B per mL, 15% FBS and 2 μg of Polybrene (Sigma Chemical Co., St. Louis, Mo.) per mL. Test and control samples from the inactivation procedure were diluted in 50% assay medium and 50% normal human pooled plasma. The samples were serially diluted directly in 96-well plates (Corning Glass Works, corning, N.Y.). The plates were mixed on an oscillatory shaker for 30 seconds and incubated at 37° C. in a 5% CO2 atmosphere for 1 to 18 hours. […] After an additional 1 hour of incubation at 37° C. in 5% CO2, 0.075 mL of assay medium containing 1.6% SeaPlaque agarose (FMC Bioproducts, Rockland, me.) and prewarmed to 38.5° C. was added to each well. The plates were kept at 37° C. for a few minutes until several plates had accumulated and then centrifuged in plate carriers at 600×g for 20 minutes in a centrifuge precooled to 10° C. In the centrifuge, cell monolayers formed prior to gelling of the agarose layer. The plates were incubated for 5 days at 37° C. in 5% CO2 and stained by the addition of 0.05 mL of 50 μg/mL propidium iodide (Sigma Chemical Co.) in phosphate-buffered saline (pH 7.4) to each well. After 24 to 48 hours, the red fluorescence-stained microplaques were visualized by placing the plates on an 8,000 μW/cm^2 304 nm UV light box (Fotodyne, Inc., New Berlin, Wis.). The plaques were counted at a magnification of ×20 to ×25 through a stereomicroscope. “n” represents the number of runs for which the data point is an average.

[1] = system: Duck Hepatitis B Virus (DHBV); assay: Inactivation of Duck Hepatitis B Virus in platelet concentrate, PCR amplification read-out; settings: 5 J/CM^2 UVA
Procedure: This example describes the protocol for inactivation of another virus, Duck Hepatitis B Virus (DHBV), using compounds of the present invention. DHBV in duck yolk was added to platelet concentrate (PC) to a final concentration of 2×10^7 particles per mL and mixed by gentle rocking for ≧15 min. […] Samples, including controls without added psoralen, were irradiated with 5 J/CM^2 UVA, with mixing at 1 J/cm^2 increments. After irradiation, leukocytes and platelets were separated from virus by centrifugation. […] Samples were extracted with phenolchloroform and chloroform, followed by ethanol precipitation. […] PCR amplicons were generated using primers pairs DCD03/DCD05 (127 bp), DCD03/DCD06 (327 bp) and DCD03/DCD07 (1072 bp). PCR was performed in a standard PCR buffer containing 0.2 mM each deoxyribonucleoside 5′-triphosphates (dATP, dGTP, dCTP, and dTTP), 0.5 […], and 0.5 units Taq polymerase per […]. 30 cycles of amplification were performed with the following thermal profile: 95° C. 30 sec, 60° C. 30 sec, 72° C. 1 min. The amplification was followed by a 7 min incubation at 72° C. to yield full length products. [[…]-^32P] dCTP was added at an amount of […] in order to detect and quantify the resulting products. Products were separated by electrophoresis on denaturing polyacrylamide slab gels and counted. The absence of signal in a given reaction was taken to indicate effective inactivation of DHBV.

TA1537 = assay: Ames assay, dark mutagenicity, strain TA1537
Procedure: (§1) In this example the compounds of the present invention are tested for their dark mutagenicity using an Ames assay. The procedures used for the Salmonella mutagenicity test as described in detail by Maron and Ames were followed exactly. Maron, D. M. and B. N. Ames, Mutation Research 113:173 (1983). A brief description for each procedure is given here. The tester strains TA97a, TA98, TA100, TA102, TA1537 and TA1538 were obtained from Dr. Ames. TA97a, TA98, TA1537 and TA1538 are frameshift tester strains. TA100 and TA102 are base-substitution tester strains. Upon receipt each strain was cultured under a variety of conditions to confirm the genotypes specific to the strains.
(§2) The first tests done with the strains were to determine the range of spontaneous reversion for each of the strains. With each mutagenicity experiment the spontaneous reversion of the tester strains to histidine independence was measured and expressed as the number of spontaneous revertants per plate. This served as the background controls.
(§3) For all experiments, the pre-incubation procedure was used. In this procedure one vial of each tester strain was thawed and 20 μL of this culture was added to 6 mL of Oxoid Nutrient Broth #2. This solution was allowed to shake for 10 hours at 37° C. In the pre-incubation procedure, 0.1 mL of this overnight culture was added to each of the required number of sterile test tubes. To half of the tubes 0.5 mL of a 10% S-9 solution containing Aroclor 1254 induced rat liver extract (Molecular Toxicology Inc., Annapolis, MD), and MgCl2, KCl, glucose-6-phosphate, NADP, and sodium phosphate buffer (Sigma, St. Louis. Mo.) were added. To the other half of the tubes 0.5 mL of 0.2M sodium phospate buffer, pH 7.4, was used in place of the S-9 mixture (the -S9 samples) Finally 0.1 mL of the test solution containing either 0.0.1, 0.5, 1, 5, 10, 50, 100, 250, or 500 μg/mL of the test compound was added. The 0.7 mL mixture pre-incubated while shaking for 20 minutes at 37° C. After shaking, 2 mL of molten top agar supplemented with histidine and biotin were added to the 0.7 mL mixture and immediately poured onto a minimal glucose agar plate (volume of base agar was 20 ml.). The top agar was allowed 30 minutes to solidify and then the plates were inverted and incubated for 44 hours at 37° C. After incubation the number of revertant colonies on each plate were counted. […] (“n” represents the number of replicates performed for each data point.)
(§4) Maron and Ames (1983) describe the conflicting views with regard to the statistical treatment of data generated from the test.

TA1538 = assay: Ames assay, dark mutagenicity, strain TA1538
Procedure: as §1, §2, §3, §4

[2] = system: Salmonella tester strains; assay: Ames assay, dark mutagenicity, overall over tester strains; settings: for mutagenicity as defined by the Ames test: two-fold or greater increase in revertants above background and dose dependent response
Procedure: as §1, §2, §3, §4

DNA = settings: photoactivated binding; NCI Monograph 66:21 (1984); cited from earlier work
TA102 = assay: Ames assay, dark mutagenicity, strain TA102
Procedure: as §1, §2
For all experiments, the pre-incubation procedure was used. In this procedure one vial of each tester strain was thawed and 20 μL of this culture was added to 6 mL of Oxoid Nutrient Broth #2. This solution was allowed to shake for 10 hours at 37° C. […] After incubation the number of revertant colonies on each plate were counted. […]

[3] = Table 6, 1 minute irradiation = 1.2 J/cm^2, starting titer approx. 7.1 logs
[4] = Table 7, 1 minute irradiation, starting titer approx. 7.1 logs
[5] = Table 8, 1 minute irradiation, HIV starting titer approximately 5 logs

Cc1oc2c(C)c3oc(=O)cc(C)c3cc2c1CNCCN (as salt: hydrochloride) [Compound 1, 4′-(4-amino-2-aza)butyl-4,5′,8-trimethylpsoralen dihydrochloride]
melting point: 320 to 322 °C (dec.)

Cc1oc2c(C)c3oc(=O)cc(C)c3cc2c1CNCCCN (as salt: hydrochloride) [Compound 5, 4′-(5-amino-2-aza)pentyl-4,5′,8-trimethylpsoralen dihydrochloride]
melting point: 288 °C (dec.)

Cc1oc2c(C)c3oc(=O)cc(C)c3cc2c1CN [AMT, 4′-Aminomethyl-4,5′,8-trimethylpsoralen, reference compound]
R17 Log Kill 8 uM (R17; 8 uM, 1 minute irradiation): 2.7 log
R17 Log Kill 16 uM (R17; 1 minute irradiation): 4.6 log
R17 Log Kill 32 uM (R17; 1 minute irradiation): >6.2 log
R17 log kill 16 uM (R17; [3]): 4.5 log
R17 log kill 32 uM (R17; [3]): 4.8 log
R17 log kill 16 uM (R17; [4]): >6 log
R17 log kill 32 uM (R17; [4]): >6 log
HIV Log Kill 16 μM (cell-free virus (HIV); Table 8, 16 μM, 1 minute irradiation, HIV starting titer approximately 5 logs): 1.4 log
PCR amplification of the 1072 bp amplicon ([1]; platelet concentrate): a signal could be detected
PCR amplification of the 1072 bp amplicon ([1]; 70 and 100 mM levels, platelet concentrate): inhibited PCR amplification
dose at which frameshift mutagenicity was shown (TA1537; TA1537): 5 μg/plate
revertant colonies per plate (TA1537; TA1537 −S9, 100 μg/plate): 2058
dose at which frameshift mutagenicity was shown (TA1538; TA1538): 1 μg/plate
revertant colonies per plate (TA1538; TA1538 +S9, 0.5 μg/plate): 13
revertant colonies per plate (TA1538; TA1538 +S9, 1 μg/plate): 37
revertant colonies per plate (TA1538; TA1538 +S9, 5 μg/plate): 177
revertant colonies per plate (TA1538; TA1538 +S9, 10 μg/plate): 255
revertant colonies per plate (TA1538; TA1538 −S9, 0.5 μg/plate): 4
revertant colonies per plate (TA1538; TA1538 −S9, 1 μg/plate): 4
revertant colonies per plate (TA1538; TA1538 −S9, 5 μg/plate): 13
base-substitution mutagenicity ([2]; base-substitution tester strains TA100 and TA102): no significant base-substitution mutations
concentration at which mutagenicity was displayed ([2]; comparison with Compound 6): 5 μg/plate
DNA base pairs per adduct (up to 1 AMT adduct per) (DNA): 3.5 DNA base pairs

Cc1oc2c(C)c3oc(=O)cc(C)c3cc2c1CCN [Compound 3, 4′-(2-aminoethyl)-4,5′,8-trimethylpsoralen Hydrochloride]
R17 Log Kill 8 uM (R17; 8 uM, 1 minute irradiation): >6.2 log
R17 Log Kill 16 uM (R17; 1 minute irradiation): >6.2 log
R17 Log Kill 32 uM (R17; 1 minute irradiation): >6.2 log
R17 log kill 8 uM (R17; Table 6, 8 uM, 1 minute irradiation = 1.2 J/cm^2, starting titer approx. 7.1 logs): 5.6 log
R17 log kill 16 uM (R17; [3]): >6.1 log
HIV Log Kill 32 μM (cell-free virus (HIV); [5]): 2.7 log
HIV Log Kill 64 μM (cell-free virus (HIV); [5]): >3.8 log
HIV inactivation activity compared with AMT (cell-free virus (HIV); concentrations of 64 μM of compound or higher): significantly more active than AMT
mutagenicity as defined by the Ames test [2]: no mutagenicity

Cc1oc2c(C)c3oc(=O)cc(C)c3cc2c1COCCCN [Compound 4, 4′-(5-amino-2-oxa)pentyl-4,5′,8-trimethylpsoralen]
R17 log kill 16 uM (R17; [3]): 2.3 log
R17 log kill 32 uM (R17; [3]): 4.3 log
R17 log kill 64 uM (R17; Table 6, 64 uM, 1 minute irradiation = 1.2 J/cm^2, starting titer approx. 7.1 logs): >6.1 log
HIV Log Kill 32 μM (cell-free virus (HIV); [5]): 2.2 log
HIV Log Kill 64 μM (cell-free virus (HIV); [5]): >3.6 log
mutagenicity as defined by the Ames test [2]: no mutagenicity

COc1c2occc2cc2ccc(=O)oc12 [Compound 8-MOP, 8-Methoxypsoralen]
dose at which the only mutagenic response (weak base-substitution mutagen) was detected (TA102; TA102): 500 μg/plate

Cc1oc2c(C)c3oc(=O)cc(C)c3cc2c1COCCN [Compound S-59]
PCR of the smaller amplicons compared with AMT ([1]; 127 bp and 327 bp amplicons, same concentrations): inhibited PCR of the smaller amplicons better than did AMT
PCR of the 1072 bp amplicon ([1]; all concentrations (35, 70, and 100 mM), platelet concentrate): complete inhibition of PCR

OO [hydrogen peroxide]
revertant colonies per plate, positive control (TA102; Salmonella typhimurium, 44 h, 100 μg/plt, pH 7.4): 660
